Experiment: Pharmacokinetic study of the oral carnitine challenge test (OCCT)
Type: in vivo, human
Conditions: 13 volunteers
Description: Oral carnitine challenge test (OCCT): All the participants fasted overnight (>8 hours) before the OCCT. Fasting blood and spot urine samples were collected as baseline, and three tablets of L-carnitine fumarate (GNC) were then administered orally to the participants. Subsequently, the participants underwent time-series blood drawings with concurrent spot urine collections at 24 hours and 48 hours after the oral carnitine challenge. The participants were requested to provide urine samples within 2 hours of blood sample collections. All the participants were asked to avoid red meat, seafood and any medication during the period of the carnitine challenge test. The plasma and urine samples were aliquoted after centrifugation at 3000 rpm and stored in a freezer at −20° C. Ten carnitine tablets (GNC) were examined through HPLC to verify the amount of L-carnitine used in the OCCT. The mean dose of carnitine fumarate in each tablet was 693.5 (SD±63.2) mg (≈400 mg L-carnitine/tablet).
Pharmacokinetic study of plasma TMAO by oral administration of carnitine: Thirteen independent volunteers were recruited for a pharmacokinetic study of the OCCT. After the oral carnitine challenge, blood samples were collected at 4, 8, 12, 24, 36 and 48 hours. Six of the volunteers agreed to participate in the same pharmacokinetic test again 3 months later. All the volunteers signed informed consent waivers provided by the Institutional Review Board of National Taiwan University Hospital.
Plasma TMAO peaked in the interval between 24 hours and 48 hours of the OCCT: This example assumed that TMAO formation in blood occurred at approximately 24 hours of the OCCT based on the time required for bowel transit, microbial catabolism and the enzymatic reaction of hepatic FMO3 to convert the ingested carnitine into plasma TMAO. The example performed a pharmacokinetic study of the OCCT to confirm this hypothesis (FIG. 4). In the study, 13 participants received seven blood tests at indicated time points after ingestion of three tablets of L-carnitine fumarate (General Nutrition Centers (GNC), Pennsylvania, USA). […]

[1] = three tablets of L-carnitine fumarate orally

C[N+](C)(C)C[C@H](O)CC(=O)[O-].O=C(O)/C=C/C(=O)O [L-carnitine fumarate]
time at which plasma carnitine level peaked after OCCT (three tablets of L-carnitine fumarate (GNC, approximately 1200 mg L-carnitine) orally): 4 h | plasma TMA level after OCCT [1]: very low concentration | plasma γ-butyrobetaine level after OCCT [1]: very low concentration
